Data reported in US20140336182A1, “Aurora Kinase Modulators and Method of Use” (Amgen Inc., priority 2013, published 2014).
Where two headings read alike, the source gives them in different places.

Test system: HeLa cells
Test: HeLa cell 24 hr ploidy assay (DNA content)
Type: cell-based
Conditions: Homo sapiens, HeLa, average, read-out: 24h_4NPloidy EC50_IP (uM Avg)
Description: HeLa cell 24 hr ploidy assay protocol
The purpose of this assay is to evaluate the ability of selected individual compounds to induce Deoxyribonucleic acid (DNA) content (ploidy) in cells through failed cell division. Cell cycle analysis is a rapid and efficient way to evaluate the status of DNA content (ploidy) of a given cell. HeLa cells (1×10^4 HeLa cells/well) in 100 ul of media (MEM+10% FBS) were plated in 96-well plates (Packard View) and cultured for 24 hrs at 37° C. maintained in a 5% CO2 atmosphere. […] The compounds were serially diluted in DMSO (0.25% final concentration). The cells were fixed (3.7% Formaldehyde and 1% glutaraldehyde) and permeabilized (1×PBS with 1% BSA and 0.2% Triton X-100) in preparation for nuclear staining. The well plates were stained for 45 minutes at RT in the dark using Hoechest 33342 nuclear stain at 0.5 ug.ml (Stock of 10 mg/ml, Invitrogen, CA, Cat #H3570). The nuclear stain was removed by aspiration and the cells were washed with wash buffer. A Cellomics Array Scan Vti plate reader was used to acquire the DNA ploidy data of the cells using Cell Cycle bioapplication. Numbers for each of “valid cell count/well”, “% of 4N cells” and “% of >4Ncells” were calculated with the assistance of an Activity Base 5.1ca software and dose curves were generated using an XLFit software. With XLFit, final EC50 IP and EC50 transit values, as well as the Max and Min, were calculated for each curve.

Row | EC50 (HeLa cells, 4N ploidy) [µM] | SMILES | other results
1 |  | COc1ccc(F)cc1-c1nnc(Nc2ccc(Oc3ccnc4cc(C(N)=O)ccc34)cc2)c2ccccc12 [Example 47, 4-(4-(4-(5-fluoro-2-methoxyphenyl)phthalazin-1-ylamino)phenoxy)quinoline-7-carb oxamide] | EC50 (4N ploidy): > 1.2 µM
2 | 0.12 | FC(F)Oc1cnc2c(Sc3ccc(Nc4nnc(-c5ccccc5)c5ccccc45)cc3)ccnc2c1 [Example 387, N-(4-(7-(difluoromethoxy)-1,5-naphthyridin-4-ylthio)phenyl)-4-phenylphthalazin-1-amine] | 
3 | 0.013 | Oc1ccc2nccc(Sc3ccc(Nc4nnc(-c5ccc(Cl)cc5)c5ccccc45)cc3)c2c1 [Example 388, 4-(4-(4-(4-Chlorophenyl)phthalazin-1-ylamino)phenylthio)quinolin-6-ol] | 
4 | 0.055 | COCCOCCOc1ccc2nccc(Sc3ccc(Nc4nnc(-c5ccc(Cl)cc5)c5ccccc45)cc3)c2c1 [Example 389, 4-(4-Chlorophenyl)-N-(4-(6-(2-(2-methoxyethoxy)ethoxy)quinolin-4-ylthio)phenyl) phthalazin-1-amine] | 
5 | > 1.2 | CS(=O)(=O)CCOc1ccc2nccc(Sc3ccc(Nc4nnc(-c5ccc(Cl)cc5)c5ccccc45)cc3)c2c1 [Example 390, 4-(4-Chlorophenyl)-N-(4-(6-(2-(methylsulfonyl)ethoxy)quinolin-4-ylthio)phenyl) phthalazin-1-amine] | 
6 | 0.032 | Clc1ccc(-c2nnc(Nc3ccc(Sc4ccnc5ccoc45)cc3)c3ccccc23)nc1 [Example 391, 4-(5-Chloropyridin-2-yl)-N-(4-(furo[3,2-b]pyridin-7-ylthio)phenyl)phthalazin-1-amine] | 
7 | 0.085 | COc1cc2nccc(Oc3ccc(Nc4nnc(-c5ccccc5)c5ccccc45)cc3)c2cc1C#N [Example 392, 7-Methoxy-4-(4-(4-phenylphthalazin-1-ylamino)phenoxy)quinoline-6-carbonitrile] | 
8 | 0.001 | COCCOc1cc2nccc(Oc3ccc(Nc4nnc(-c5ccccc5)c5ccccc45)cc3)c2cc1OC [Example 393, N-(4-(6-Methoxy-7-(2-methoxyethoxy)quinolin-4-yloxy)phenyl)-4-phenylphthalazin-1-amine] | 
9 | 0.045 | COc1cnc2c(Oc3ccc(Nc4nnc(-c5ccc(Cl)c(OCCS(C)(=O)=O)c5)c5ccccc45)cc3)ccnc2c1 [Example 394, 4-(4-Chloro-3-(2-(methylsulfonyl)ethoxy)phenyl)-N-(4-(7-methoxy-1,5-naphthyridin-4-yloxy)phenyl)phthalazin-1-amine] | 
10 | 0.023 | COCCOc1cc(-c2nnc(Nc3ccc(Oc4ccnc5cc(OC)cnc45)cc3)c3ccccc23)ccc1C [Example 395, N-(4-(7-Methoxy-1,5-naphthyridin-4-yloxy)phenyl)-4-(3-(2-methoxyethoxy)-4-methylphenyl)phthalazin-1-amine] | 
11 | 0.008 | COc1cnc2c(Sc3ccc(Nc4nnc(-c5ccn(C)c(=O)c5)c5ccccc45)cc3)ccnc2c1 [Example 396, 4-(4-(4-(7-Methoxy-1,5-naphthyridin-4-ylthio)phenylamino)phthalazin-1-yl)-1-methylpyridin-2(1 H)-one] | 
12 | 0.009 | Cc1ccc(-c2nnc(Nc3ccc(Sc4ccnc5ccoc45)cc3)c3ccccc23)cc1F [Example 398, 4-(3-Fluoro-4-methylphenyl)-N-(4-(furo[3,2-b]pyridin-7-ylthio)phenyl)phthalazin-1-amine] | 
13 | 0.019 | Nc1ccc2nccc(Sc3ccc(Nc4nnc(-c5ccccc5)c5ccccc45)cc3)c2c1 [Example 399, N-(4-(6-Aminoquinolin-4-ylthio)phenyl)-4-phenylphthalazin-1-amine] | 
14 | 0.187 | COc1cnc2c(Sc3ccc(Nc4nnc(C5=CCNCC5)c5ccccc45)cc3)ccnc2c1 [Example 401, N-(4-(7-Methoxy-1,5-naphthyridin-4-ylthio)phenyl)-4-(1,2,3,6-tetrahydropyridin-4-yl)phthalazin-1-amine] | 
15 | 0.066 | COc1cnc2c(Sc3ccc(Nc4nnc(OC)c5ccccc45)cc3)ccnc2c1 [Example 402, 4-Methoxy-N-(4-(7-methoxy-1,5-naphthyridin-4-ylthio)phenyl)phthalazin-1-amine] | 
16 | 0.037 | COc1cnc2c(Sc3ccc(Nc4nnc(OCCC5CCCCN5)c5ccccc45)cc3)ccnc2c1 (centres unmarked) [Example 403, N-(4-(7-Methoxy-1,5-naphthyridin-4-ylthio)phenyl)-4-(2-(piperidin-2-yl)ethoxy)phthalazin-1-amine] | 
17 | 0.063 | COc1cnc2c(Sc3ccc(Nc4nnc(C#N)c5ccccc45)cc3)ccnc2c1 [Example 404, 4-(4-(7-Methoxy-1,5-naphthyridin-4-ylthio)phenylamino)phthalazine-1-carbonitrile] | 
18 | 0.036 | O=c1ccc2nccc(Sc3ccc(Nc4nnc(-c5ccc(Cl)cn5)c5ccccc45)cc3)c2[nH]1 [Example 405, 8-(4-(4-(5-Chloropyridin-2-yl)phthalazin-1-ylamino)phenylthio)-1,5-naphthyridin-2(1H)-one] | 
19 | < 0.0023 | COc1cc2nccc(Sc3ccc(Nc4nnc(-c5ccc(Cl)cc5)c5ccccc45)cc3)c2[nH]c1=O [Example 406, 8-(4-(4-(4-Chlorophenyl)phthalazin-1-ylamino)phenylthio)-3-methoxy-1,5-naphthyridin-2(1H)-one] | 
20 | 0.012 | COc1cnc2c(Oc3ccc(Nc4nnc(-c5cc(CO)cs5)c5ccccc45)cc3)ccnc2c1 [Example 407, (5-(4-(4-(7-Methoxy-1,5-naphthyridin-4-yloxy)phenylamino)phthalazin-1-yl)thiophen-3-yl)methanol] | 
21 | 0.025 | COc1cnc2c(Oc3ccc(Nc4nnc(-c5cc(CF)cs5)c5ccccc45)cc3)ccnc2c1 [Example 408, 4-(4-(Fluoromethyl)thiophen-2-yl)-N-(4-(7-methoxy-1,5-naphthyridin-4-yloxy)phenyl)phthalazin-1-amine] | 
22 |  | Oc1cnc2c(Oc3ccc(Nc4nnc(-c5ccc(Cl)cc5)c5ccccc45)cc3)ccnc2c1 [Example 409, 8-(4-(4-(4-Chlorophenyl)phthalazin-1-ylamino)phenoxy)-1,5-naphthyridin-3-ol] | EC50 (HeLa cells): 0.032 µM
23 |  | COc1cnc2c([S+]([O-])c3ccc(Nc4nnc(-c5ccc(F)cc5)c5ccccc45)cc3)ccnc2c1 (centres unmarked) [Example 410, 4-(4-fluorophenyl)-N-(4-(7-methoxy-1,5-naphthyridin-4-ylsulfinyl)phenyl)phthalazin-1-amine] | EC50 (HeLa cells): 0.26 µM
24 |  | CCc1cc(-c2ccccc2)nnc1Nc1ccc(Oc2ccnc3cc(C(N)=O)ccc23)cc1 [compound 49, 4-((4-((4-ethyl-6-phenyl-3-pyridazinyl)amino)phenyl)oxy)-7-quinolinecarboxamide] | EC50 (4N ploidy): 0.028 µM
25 | 0.372 | COc1cnc2c(N(C)c3ccc(Nc4nnc(-c5ccccc5)c5ccccc45)cc3)ccnc2c1 [compound 51, N-methyl-N-(7-(methyloxy)-1,5-naphthyridin-4-yl)-N′-(4-phenyl-1-phthalazinyl)-1,4-benzenediamine] | 
26 |  | COc1cc2nccc(Oc3ccc(Nc4nnc(-c5ccc(C)c(C)c5)c5ccccc45)cc3)c2cc1OC [compound 74] | EC50 (4N ploidy): 0.018 µM
27 |  | COc1cc2nccc(Oc3ccc(Nc4nnc(N5CCCCC5)c5ccccc45)cc3)c2cc1OC [compound 75] | EC50 (4N ploidy): 0.025 µM
28 |  | COc1cc2nccc(Oc3ccc(Nc4nnc(-c5cccs5)c5ccccc45)cc3F)c2cc1OC [compound 76] | EC50 (4N ploidy): 0.06 µM
29 |  | COc1cc2nccc(Oc3ccc(Nc4nnc(-n5nc(C)cc5C)c5ccccc45)cc3F)c2cc1OC [compound 77] | EC50 (4N ploidy): 3.09 µM
